Measurements as given in US9529131B2, “Polarizing plate” (NITTO DENKO CORPORATION, priority 2014, dated 2016).

Assay: log P value (octanol/water partition coefficient)
Settings: not given

Molecule	logP
C=CC(=O)OCCCCCCCCCOC(=O)C=C [LIGHT ACRYLATE 1,9ND-A, 1,9-nonanediol diacrylate]	3.68

Same assay, conditions: shake flask method JIS Z 7260 or ChemDraw Ultra calculation, not stated which

Molecule	log P
C=CC(=O)OCCN=C=O [Karenz AOI]	1.6
bisphenol A-propylene oxide (2 mole) adduct di(meth)acrylate	6.10
CSc1ccc(C(=O)C(C)(C)N2CCOCC2)cc1 [IRGACURE 907, 2-methyl-1-(4-methylthiophenyl)-2-morpholinopropan-1-one]	2.09
C=CC(=O)OCCCCCCCCCCOC(=O)C=C [1,10-decanediol diacrylate]	4.10
C=CC(=O)OCC(C)OCC(C)OCC(C)OC(=O)C=C (stereo not drawn) [TPGDA, tripropylene glycol diacrylate]	1.68
